# Results reported in ChEMBL document CHEMBL3400114, “The design, synthesis and biological evaluation of conformationally restricted 4-substituted-2,6-dimethylfuro[2,3-d]pyrimidines as multi-targeted receptor tyrosine kinase and microtubule inhibitors as potential antitumor agents” (Bioorg Med Chem, 2015).
# What was measured:
# A-431 = experiment: Antiproliferative activity against human A431 cells after 48 hrs by sulforhodamine B assay; type: functional, cell-based; conditions: A-431, 48 h
# [1] = Antiangiogenic activity in VEGF-165 and bFGF-stimulated chicken embryo chorioallantoic membrane assessed as inhibition of blood vessel formation after 40 hrs by microscopy; type: functional, tissue-based, Gallus gallus
# [2] = Induction of microtubule depolymerization in rat A10 cells after 18 hrs by indirect immunofluorescence assay; type: cell-based
# MDA-MB-435 [3] = experiment: Antiproliferative activity against human MDA-MB-435 cells after 48 hrs by sulforhodamine B assay; type: functional, cell-based; conditions: MDA-MB-435, 48 h
# [4] = Ratio of EC50 for microtubule depolymerization in rat A10 cells to IC50 for human MDA-MB-435 cells
# HeLa [5] = experiment: Antiproliferative activity against human HeLa cells overexpressing wild type beta3 tubulin after 48 hrs by sulforhodamine B assay; type: functional, cell-based
# HeLa [6] = experiment: Resistance ratio of IC50 for human HeLa cells overexpressing wild type beta3 tubulin to IC50 for human HeLa cells; type: functional
# [7] = Antiproliferative activity against human SKOV3 cells overexpressing wild type beta3 tubulin after 48 hrs by sulforhodamine B assay; type: functional, cell-based; conditions: SK-OV-3, 48 h
# [8] = Antiproliferative activity against human SKOV3-MDR1-M6/6 cells overexpressing wild type beta3 tubulin after 48 hrs by sulforhodamine B assay; type: functional, cell-based; conditions: SKOV3-MDR1-M6/6, 48 h
# SK-OV-3 [9] = experiment: Resistance ratio of IC50 for human SKOV3-MDR1-M6/6 cells to IC50 for human SKOV3 cells; type: functional
# [10] = Growth inhibition of human EKVX cells after 48 hrs by sulforhodamine B assay; type: functional
# HOP-62 = experiment: Growth inhibition of human HOP62 cells after 48 hrs by sulforhodamine B assay; type: functional; conditions: HOP-62, 48 h
# [11] = Growth inhibition of human HOP92 cells after 48 hrs by sulforhodamine B assay; type: functional; conditions: HOP-92, 48 h
# NCI-H226 = experiment: Growth inhibition of human NCI-H226 cells after 48 hrs by sulforhodamine B assay; type: functional; conditions: NCI-H226, 48 h
# NCI-H23 = experiment: Growth inhibition of human NCI-H23 cells after 48 hrs by sulforhodamine B assay; type: functional; conditions: NCI-H23, 48 h
# NCI-H460 = experiment: Growth inhibition of human NCI-H460 cells after 48 hrs by sulforhodamine B assay; type: functional; conditions: NCI-H460, 48 h
# NCI-H522 = experiment: Growth inhibition of human NCI-H522 cells after 48 hrs by sulforhodamine B assay; type: functional; conditions: NCI-H522, 48 h
# SF-268 = experiment: Growth inhibition of human SF268 cells after 48 hrs by sulforhodamine B assay; type: functional; conditions: SF-268, 48 h
# [12] = Growth inhibition of human SF295 cells after 48 hrs by sulforhodamine B assay; type: functional; conditions: SF-295, 48 h
# [13] = Growth inhibition of human SF539 cells after 48 hrs by sulforhodamine B assay; type: functional; conditions: SF-539, 48 h
# SNB-19 = experiment: Growth inhibition of human SNB19 cells after 48 hrs by sulforhodamine B assay; type: functional; conditions: SNB-19, 48 h
# SNB-75 = experiment: Growth inhibition of human SNB75 cells after 48 hrs by sulforhodamine B assay; type: functional; conditions: SNB-75, 48 h
# U-251 = experiment: Growth inhibition of human U251 cells after 48 hrs by sulforhodamine B assay; type: functional; conditions: U-251, 48 h
# IGROV-1 = experiment: Growth inhibition of human IGROV1 cells after 48 hrs by sulforhodamine B assay; type: functional; conditions: IGROV-1, 48 h
# [14] = Growth inhibition of human OVCAR3 cells after 48 hrs by sulforhodamine B assay; type: functional; conditions: OVCAR-3, 48 h
# [15] = Growth inhibition of human OVCAR4 cells after 48 hrs by sulforhodamine B assay; type: functional; conditions: OVCAR-4, 48 h
# [16] = Growth inhibition of human OVCAR5 cells after 48 hrs by sulforhodamine B assay; type: functional; conditions: OVCAR-5, 48 h
# [17] = Growth inhibition of human OVCAR8 cells after 48 hrs by sulforhodamine B assay; type: functional; conditions: OVCAR-8, 48 h
# NCI/ADR-RES = experiment: Growth inhibition of human NCI/ADR-RES cells after 48 hrs by sulforhodamine B assay; type: functional
# SK-OV-3 [18] = experiment: Growth inhibition of human SKOV3 cells after 48 hrs by sulforhodamine B assay; type: functional; conditions: SK-OV-3, 48 h
# [19] = Growth inhibition of human LOXIMVI cells after 48 hrs by sulforhodamine B assay; type: functional; conditions: LOX IMVI
# M14 = experiment: Growth inhibition of human M14 cells after 48 hrs by sulforhodamine B assay; type: functional; conditions: M14, 48 h
# MDA-MB-435 [20] = experiment: Growth inhibition of human MDA-MB-435 cells after 48 hrs by sulforhodamine B assay; type: functional; conditions: MDA-MB-435, 48 h
# SK-MEL-2 = experiment: Growth inhibition of human SK-MEL-2 cells after 48 hrs by sulforhodamine B assay; type: functional; conditions: SK-MEL-2, 48 h
# SK-MEL-5 = experiment: Growth inhibition of human SK-MEL-5 cells after 48 hrs by sulforhodamine B assay; type: functional; conditions: SK-MEL-5, 48 h
# [21] = Growth inhibition of human UACC62 cells after 48 hrs by sulforhodamine B assay; type: functional; conditions: UACC-62, 48 h
# 786-0 = experiment: Growth inhibition of human 786-0 cells after 48 hrs by sulforhodamine B assay; type: functional; conditions: 786-0, 48 h
# ACHN = experiment: Growth inhibition of human ACHN cells after 48 hrs by sulforhodamine B assay; type: functional
# CAKI-1 = experiment: Growth inhibition of human Caki1 cells after 48 hrs by sulforhodamine B assay; type: functional; conditions: CAKI-1, 48 h
# [22] = Growth inhibition of human RXF393 cells after 48 hrs by sulforhodamine B assay; type: functional; conditions: RXF 393, 48 h
# SN12C = experiment: Growth inhibition of human SN12C cells after 48 hrs by sulforhodamine B assay; type: functional
# TK-10 = experiment: Growth inhibition of human TK10 cells after 48 hrs by sulforhodamine B assay; type: functional; conditions: TK-10, 48 h
# [23] = Growth inhibition of human UO31 cells after 48 hrs by sulforhodamine B assay; type: functional; conditions: UO-31, 48 h
# [24] = Growth inhibition of human COLO205 cells after 48 hrs by sulforhodamine B assay; type: functional; conditions: COLO 205, 48 h
# [25] = Growth inhibition of human HCC2998 cells after 48 hrs by sulforhodamine B assay; type: functional; conditions: HCC 2998, 48 h
# [26] = Growth inhibition of human HCT116 cells after 48 hrs by sulforhodamine B assay; type: functional; conditions: HCT-116, 48 h
# [27] = Growth inhibition of human HCT15 cells after 48 hrs by sulforhodamine B assay; type: functional; conditions: HCT-15, 48 h
# HT-29 = experiment: Growth inhibition of human HT-29 cells after 48 hrs by sulforhodamine B assay; type: functional; conditions: HT-29, 48 h
# KM12 = experiment: Growth inhibition of human KM12 cells after 48 hrs by sulforhodamine B assay; type: functional; conditions: KM12, 48 h
# SW-620 = experiment: Growth inhibition of human SW620 cells after 48 hrs by sulforhodamine B assay; type: functional; conditions: SW-620, 48 h
# [28] = Growth inhibition of human PC3 cells after 48 hrs by sulforhodamine B assay; type: functional; conditions: PC-3, 48 h
# DU-145 = experiment: Growth inhibition of human DU145 cells after 48 hrs by sulforhodamine B assay; type: functional; conditions: DU-145, 48 h
# MCF7 = experiment: Growth inhibition of human MCF7 cells after 48 hrs by sulforhodamine B assay; type: functional; conditions: MCF7, 48 h
# MDA-MB-231 = experiment: Growth inhibition of human MDA-MB-231 cells after 48 hrs by sulforhodamine B assay; type: functional; conditions: MDA-MB-231, 48 h
# [29] = Growth inhibition of human Hs 578T cells after 48 hrs by sulforhodamine B assay; type: functional
# [30] = Growth inhibition of human BT549 cells after 48 hrs by sulforhodamine B assay; type: functional; conditions: BT-549, 48 h
# MDA-MB-468 = experiment: Growth inhibition of human MDA-MB-468 cells after 48 hrs by sulforhodamine B assay; type: functional; conditions: MDA-MB-468, 48 h
# CCRF-CEM = experiment: Growth inhibition of human CCRF-CEM cells after 48 hrs by sulforhodamine B assay; type: functional
# HL-60(TB) = experiment: Growth inhibition of human HL-60(TB) cells after 48 hrs by sulforhodamine B assay; type: functional; conditions: HL-60, 48 h
# K562 = experiment: Growth inhibition of human K562 cells after 48 hrs by sulforhodamine B assay; type: functional; conditions: K562, 48 h
# [31] = Growth inhibition of human MOLT4 cells after 48 hrs by sulforhodamine B assay; type: functional; conditions: MOLT-4, 48 h
# [32] = Growth inhibition of human […] cells after 48 hrs by sulforhodamine B assay; type: functional
# SR = experiment: Growth inhibition of human SR cells after 48 hrs by sulforhodamine B assay; type: functional
# Tubulin = Tubulin (Bos taurus, UniProt Q6B856+Q862L2+Q862F3); experiment: Inhibition of bovine brain tubulin assembly
# [33] = target: Epidermal growth factor receptor (Homo sapiens, UniProt P00533); type: cell-based, A-431
# Epidermal growth factor receptor, sequence (P00533 whole entry): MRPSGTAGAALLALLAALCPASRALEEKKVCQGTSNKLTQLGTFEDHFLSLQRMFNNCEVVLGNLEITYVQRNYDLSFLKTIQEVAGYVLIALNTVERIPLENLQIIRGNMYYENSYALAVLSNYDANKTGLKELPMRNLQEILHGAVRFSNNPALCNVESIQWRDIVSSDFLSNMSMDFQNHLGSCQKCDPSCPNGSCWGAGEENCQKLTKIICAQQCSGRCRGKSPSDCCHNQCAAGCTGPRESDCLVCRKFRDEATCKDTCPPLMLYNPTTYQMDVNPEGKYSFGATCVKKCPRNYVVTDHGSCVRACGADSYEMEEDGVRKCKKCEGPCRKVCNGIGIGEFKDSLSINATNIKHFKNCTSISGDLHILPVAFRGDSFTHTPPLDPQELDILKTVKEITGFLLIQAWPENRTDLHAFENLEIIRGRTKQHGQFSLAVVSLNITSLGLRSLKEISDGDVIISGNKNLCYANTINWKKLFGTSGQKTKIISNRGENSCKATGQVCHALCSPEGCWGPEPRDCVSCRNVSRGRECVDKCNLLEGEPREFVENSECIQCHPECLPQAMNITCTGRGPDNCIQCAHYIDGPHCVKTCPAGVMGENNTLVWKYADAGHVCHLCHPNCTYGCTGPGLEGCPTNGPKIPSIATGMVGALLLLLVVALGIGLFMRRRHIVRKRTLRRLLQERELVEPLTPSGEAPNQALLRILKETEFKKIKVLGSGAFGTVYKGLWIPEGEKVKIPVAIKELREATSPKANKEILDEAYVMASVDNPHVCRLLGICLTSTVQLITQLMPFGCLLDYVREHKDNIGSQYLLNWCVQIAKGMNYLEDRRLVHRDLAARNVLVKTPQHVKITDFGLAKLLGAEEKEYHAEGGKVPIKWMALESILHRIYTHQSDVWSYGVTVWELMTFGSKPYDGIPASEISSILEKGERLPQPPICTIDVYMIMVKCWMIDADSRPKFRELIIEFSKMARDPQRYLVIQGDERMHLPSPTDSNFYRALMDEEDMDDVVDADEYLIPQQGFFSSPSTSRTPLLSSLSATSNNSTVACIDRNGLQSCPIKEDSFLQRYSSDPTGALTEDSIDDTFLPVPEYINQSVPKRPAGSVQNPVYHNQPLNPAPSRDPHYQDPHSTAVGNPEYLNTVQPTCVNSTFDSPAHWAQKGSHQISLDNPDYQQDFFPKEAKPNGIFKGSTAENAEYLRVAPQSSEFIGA
# [34] = target: Vascular endothelial growth factor receptor 2 (Homo sapiens, UniProt P35968); type: cell-based, U-251
# Vascular endothelial growth factor receptor 2, sequence (P35968 whole entry): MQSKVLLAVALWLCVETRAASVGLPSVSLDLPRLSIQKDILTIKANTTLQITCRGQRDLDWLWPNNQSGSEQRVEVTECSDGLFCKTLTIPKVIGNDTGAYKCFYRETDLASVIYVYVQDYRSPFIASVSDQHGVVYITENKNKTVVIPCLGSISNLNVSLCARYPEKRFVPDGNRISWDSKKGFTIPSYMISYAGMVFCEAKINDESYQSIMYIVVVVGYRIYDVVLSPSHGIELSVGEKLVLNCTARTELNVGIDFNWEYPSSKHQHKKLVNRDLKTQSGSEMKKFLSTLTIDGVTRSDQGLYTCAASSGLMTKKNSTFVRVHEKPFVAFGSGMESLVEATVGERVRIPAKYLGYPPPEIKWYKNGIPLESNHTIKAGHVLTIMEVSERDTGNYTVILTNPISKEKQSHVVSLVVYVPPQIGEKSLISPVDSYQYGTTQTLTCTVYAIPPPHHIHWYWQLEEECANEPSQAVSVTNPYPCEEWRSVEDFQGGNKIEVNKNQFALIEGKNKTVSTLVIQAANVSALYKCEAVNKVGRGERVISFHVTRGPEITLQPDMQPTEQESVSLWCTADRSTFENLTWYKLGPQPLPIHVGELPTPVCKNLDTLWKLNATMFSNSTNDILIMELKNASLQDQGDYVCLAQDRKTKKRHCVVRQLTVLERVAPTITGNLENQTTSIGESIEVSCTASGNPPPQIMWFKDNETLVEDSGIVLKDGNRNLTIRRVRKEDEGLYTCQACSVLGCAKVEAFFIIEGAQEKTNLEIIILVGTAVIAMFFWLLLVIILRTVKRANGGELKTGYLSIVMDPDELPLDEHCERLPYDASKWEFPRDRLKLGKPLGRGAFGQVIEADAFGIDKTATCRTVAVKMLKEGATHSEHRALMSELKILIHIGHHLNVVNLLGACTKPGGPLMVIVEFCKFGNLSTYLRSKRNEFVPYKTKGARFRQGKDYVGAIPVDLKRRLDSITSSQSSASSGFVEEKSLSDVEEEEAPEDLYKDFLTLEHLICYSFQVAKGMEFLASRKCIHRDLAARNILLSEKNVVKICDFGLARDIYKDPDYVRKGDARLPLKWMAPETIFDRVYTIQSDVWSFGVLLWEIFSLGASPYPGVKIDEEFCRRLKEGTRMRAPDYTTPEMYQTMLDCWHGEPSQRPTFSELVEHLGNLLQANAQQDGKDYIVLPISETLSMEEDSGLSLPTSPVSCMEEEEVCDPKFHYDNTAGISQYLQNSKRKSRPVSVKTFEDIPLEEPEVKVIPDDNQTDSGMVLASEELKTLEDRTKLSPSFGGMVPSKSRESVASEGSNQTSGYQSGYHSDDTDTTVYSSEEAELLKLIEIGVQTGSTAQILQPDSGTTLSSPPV
# [35] = target: Platelet-derived growth factor receptor beta (Homo sapiens, UniProt P09619); experiment: Inhibition of PDGFR-beta in human U251 cells compound pretreated for 60 min before PDGF-BB stimulation for 10 mins by phosphotyrosine ELISA cytoblot method; type: cell-based, U-251
# Platelet-derived growth factor receptor beta, sequence (P09619 whole entry): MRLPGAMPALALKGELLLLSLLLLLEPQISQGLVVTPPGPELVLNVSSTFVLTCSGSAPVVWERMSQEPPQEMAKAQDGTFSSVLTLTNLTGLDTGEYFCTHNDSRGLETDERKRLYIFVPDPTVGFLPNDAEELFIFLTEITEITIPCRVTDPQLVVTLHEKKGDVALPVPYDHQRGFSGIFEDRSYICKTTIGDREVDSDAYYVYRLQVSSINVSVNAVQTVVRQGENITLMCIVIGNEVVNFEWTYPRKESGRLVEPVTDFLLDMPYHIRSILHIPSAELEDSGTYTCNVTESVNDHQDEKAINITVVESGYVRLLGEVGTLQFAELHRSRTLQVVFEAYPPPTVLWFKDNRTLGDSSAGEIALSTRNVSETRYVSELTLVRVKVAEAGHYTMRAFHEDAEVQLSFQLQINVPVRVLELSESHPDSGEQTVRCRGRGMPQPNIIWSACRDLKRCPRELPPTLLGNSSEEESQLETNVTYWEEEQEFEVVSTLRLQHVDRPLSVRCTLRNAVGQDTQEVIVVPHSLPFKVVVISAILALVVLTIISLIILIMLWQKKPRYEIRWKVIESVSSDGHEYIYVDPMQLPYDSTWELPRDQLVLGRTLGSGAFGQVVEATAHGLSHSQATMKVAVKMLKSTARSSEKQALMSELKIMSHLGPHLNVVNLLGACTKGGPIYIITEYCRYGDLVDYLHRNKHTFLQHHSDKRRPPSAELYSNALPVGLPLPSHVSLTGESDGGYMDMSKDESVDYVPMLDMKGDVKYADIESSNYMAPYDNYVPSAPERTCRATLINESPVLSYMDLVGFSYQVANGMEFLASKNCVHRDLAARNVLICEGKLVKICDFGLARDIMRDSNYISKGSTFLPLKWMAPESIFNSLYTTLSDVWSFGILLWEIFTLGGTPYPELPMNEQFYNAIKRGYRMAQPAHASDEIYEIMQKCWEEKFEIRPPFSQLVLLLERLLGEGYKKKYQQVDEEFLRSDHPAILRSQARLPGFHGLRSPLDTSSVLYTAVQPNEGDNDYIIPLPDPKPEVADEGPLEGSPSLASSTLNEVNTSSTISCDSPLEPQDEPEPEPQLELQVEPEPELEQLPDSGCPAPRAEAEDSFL
smiles,measurement,setting,value
Cc1nc(N(C)c2ccc3occc3c2)c2cc(C)oc2n1,IC50,A-431,0.0732 µM
same,IC50,[1],15.2 µM
same,EC50,[2],3.79 µM
same,IC50,MDA-MB-435 [3],0.133 µM
same,Ratio,[4],28
same,IC50,HeLa [5],0.243 µM
same,Ratio IC50,HeLa [6],0.8
same,IC50,[7],0.425 µM
same,IC50,[8],0.509 µM
same,Ratio IC50,SK-OV-3 [9],1.2
same,GI50,[10],0.396 µM
same,GI50,HOP-62,0.0752 µM
same,GI50,[11],0.226 µM
same,GI50,NCI-H226,0.217 µM
same,GI50,NCI-H23,0.206 µM
same,GI50,NCI-H460,0.138 µM
same,GI50,NCI-H522,0.0299 µM
same,GI50,SF-268,0.527 µM
same,GI50,[12],0.0417 µM
same,GI50,[13],0.0609 µM
same,GI50,SNB-19,0.0936 µM
same,GI50,SNB-75,0.103 µM
same,GI50,U-251,0.084 µM
same,GI50,IGROV-1,0.142 µM
same,GI50,[14],0.03 µM
same,GI50,[15],0.553 µM
same,GI50,[16],0.531 µM
same,GI50,[17],0.33 µM
same,GI50,NCI/ADR-RES,0.0376 µM
same,GI50,SK-OV-3 [18],0.098 µM
same,GI50,[19],0.162 µM
same,GI50,M14,0.0473 µM
same,GI50,MDA-MB-435 [20],0.0211 µM
same,GI50,SK-MEL-2,0.0824 µM
same,GI50,SK-MEL-5,0.0504 µM
same,GI50,[21],0.0571 µM
same,GI50,786-0,1.04 µM
same,GI50,ACHN,0.265 µM
same,GI50,CAKI-1,0.0579 µM
same,GI50,[22],0.0572 µM
same,GI50,SN12C,0.611 µM
same,GI50,TK-10,0.382 µM
same,GI50,[23],0.278 µM
same,GI50,[24],0.139 µM
same,GI50,[25],0.185 µM
same,GI50,[26],0.0771 µM
same,GI50,[27],0.0519 µM
same,GI50,HT-29,0.0519 µM
same,GI50,KM12,0.0584 µM
same,GI50,SW-620,0.0588 µM
same,GI50,[28],0.183 µM
same,GI50,DU-145,0.198 µM
same,GI50,MCF7,0.0438 µM
same,GI50,MDA-MB-231,0.223 µM
same,GI50,[29],0.0517 µM
same,GI50,[30],0.432 µM
same,GI50,MDA-MB-468,0.0315 µM
same,GI50,CCRF-CEM,0.121 µM
same,GI50,HL-60(TB),0.0412 µM
same,GI50,K562,0.0404 µM
same,GI50,[31],0.211 µM
same,GI50,[32],0.389 µM
same,GI50,SR,0.0624 µM
COc1ccc(N(C)c2nc(C)nc3oc(C)cc23)cc1,EC50,[2],0.103 µM
same,IC50,Tubulin,2.4 µM
COc1ccc2c(c1)CCN2c1nc(C)nc2oc(C)cc12,IC50,A-431,0.0422 µM
same,EC50,[2],> 10 µM
COc1ccc(N(C)c2nc(C)nc3oc(C)cc23)cc1OC,IC50,A-431,0.0097 µM
CC(=O)O[C@H]1C(=O)[C@@]2(C)[C@H]([C@H](OC(=O)c3ccccc3)[C@]3(O)C[C@H](OC(=O)[C@H](O)[C@@H](NC(=O)c4ccccc4)c4ccccc4)C(C)=C1C3(C)C)[C@]1(OC(C)=O)CO[C@@H]1C[C@@H]2O [PACLITAXEL],IC50,MDA-MB-435 [3],0.0033 µM
same,IC50,HeLa [5],0.0329 µM
same,IC50,[7],0.0063 µM
CCOc1ccc(N(C)c2nc(C)nc3oc(C)cc23)cc1,IC50,[33],> 0.5 µM
same,IC50,[34],0.121 µM
same,IC50,[35],0.132 µM
same,IC50,A-431,0.0929 µM
same,IC50,[8],0.0308 µM
